Test results reported in patent publication US6162417A, “Pyrrolo isoquinolines” (Emory University, priority 1998, dated 2000).
Read-outs that look alike come from different tables or passages of the source.

Columns and labels:
[1] = target: T1, human serotonin transporter (Homo sapiens, UniProt P31645); experiment: Binding site inhibition in HEK-293 cell membranes transfected with human serotonin transporter ([3H]Citalopram)
T1 construct: expressed in transfected cells; host or cells: HEK-293, stably transfected

[2] = Regional brain uptake with and without preblocking by paroxetine or GBR 12909 (Table 5); assay type: in vivo, Sprague Dawley rats; conditions: rat, iv, 60 min
Description: (§1) Regional Uptake (% dose/gram) and Ratios of
(§2) 95% ee(6S, 10bR)-I-McN in Sprague Dawley Rats
(§3) (n = 4) at 60 Min Following Preblocking
(§4) (5 mg/kg i.v. 15 min prior to radioligand)

[3] = tested on: serotonin transporter; dopamine transporter; experiment: as above; assay type: in vivo, Sprague Dawley rats; conditions: rat, 60 min
Description: as §1, §2, §3, §4

[4] = Tissue distribution of radioactivity after intravenous administration (Table 6); assay type: in vivo, Sprague Dawley rats; conditions: rat, i.v., mean (range) of 4 rats; for tissue uptake at 0.5 h: 30 min; for tissue uptake at 1 h: 60 min; for tissue uptake at 2 h: 120 min
Excerpt: Distribution of Radioactivity in Tissues of Unfasted Male
Sprague Dawley Rats Following Intravenous Administration
of (+)-Trans-1,2,3,5,6,10b-hexahydro-6-
[4-iodophenyl]-pyrrolo[2,1-a]isoquinoline
Mean % Injected Dose/Gram (Range of 4 rats +/SD)

[5] = Regional brain distribution of radioactivity after intravenous administration (Table 4); assay type: in vivo, Sprague-Dawley rats; conditions: iv, rat, i.v., mean of three rats; for tissue uptake at 0.5 h: 30 min; for tissue uptake at 1 h: 60 min; for tissue uptake at 2 h: 120 min
Excerpt: (§5) Regional Distribution of Radioactivity in Tissues of Unfasted
(§6) Male Sprague-Dawley Rats Following Intravenous Administration
(§7) iodophenyl)pyrrolo[2,1-a]isoquinoline
(§8) The cerebellum contains a very low density of serotonin transporter sites and is taken as "background" in this analysis of regional uptake.

[6] = tested on: serotonin transporter; experiment: as above; assay type: in vivo, Sprague-Dawley rats; conditions: rat, i.v.
Excerpt: as §5, §6, §7, §8

[7] = HEK-293 cells, human serotonin transporter, vs. [3H]Citalopram, read-out: 5-HT Ki
[8] = dopamine blocker GBR 12909 5 mg/kg i.v. 15 min prior
[9] = serotonin blocker paroxetine 5 mg/kg i.v. 15 min prior
[10] = blood, read-out: Blood, mean % injected dose/gram
[11] = brain, read-out: Brain, mean % injected dose/gram
[12] = heart, read-out: Heart, mean % injected dose/gram
[13] = kidney, read-out: Kidney, mean % injected dose/gram
[14] = liver, read-out: Liver, mean % injected dose/gram
[15] = lung, read-out: Lung, mean % injected dose/gram
[16] = muscle, read-out: Muscle, mean % injected dose/gram
[17] = spleen, read-out: Spleen, mean % injected dose/gram
[18] = thyroid, read-out: Thyroid, mean % injected dose/gram
[19] = cerebellum, read-out: Cerebellum, mean % injected dose/gram
[20] = cortex, read-out: Cortex, mean % injected dose/gram
[21] = hypothalamus, read-out: Hypothalamus, mean % injected dose/gram
[22] = prefrontal cortex, read-out: Prefrontal Cortex, mean % injected dose/gram
[23] = striatum, read-out: Striatum, mean % injected dose/gram

T1 sequence (P31645 whole entry): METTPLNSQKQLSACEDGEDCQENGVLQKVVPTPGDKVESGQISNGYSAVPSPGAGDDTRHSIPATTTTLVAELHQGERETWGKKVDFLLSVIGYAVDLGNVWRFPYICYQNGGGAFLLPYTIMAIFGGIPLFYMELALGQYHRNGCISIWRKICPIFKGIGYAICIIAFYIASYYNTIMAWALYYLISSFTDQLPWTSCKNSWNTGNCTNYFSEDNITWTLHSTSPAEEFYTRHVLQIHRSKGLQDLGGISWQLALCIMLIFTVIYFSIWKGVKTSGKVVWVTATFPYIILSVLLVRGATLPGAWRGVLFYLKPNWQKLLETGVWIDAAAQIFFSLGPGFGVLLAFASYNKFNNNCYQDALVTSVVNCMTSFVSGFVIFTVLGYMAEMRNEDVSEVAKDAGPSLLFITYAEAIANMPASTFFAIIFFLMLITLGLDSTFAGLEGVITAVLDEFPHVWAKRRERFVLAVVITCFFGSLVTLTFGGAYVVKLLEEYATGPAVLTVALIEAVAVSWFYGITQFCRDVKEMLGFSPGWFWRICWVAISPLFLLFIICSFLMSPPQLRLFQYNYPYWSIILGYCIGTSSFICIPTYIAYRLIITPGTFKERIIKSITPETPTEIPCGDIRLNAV

FCCc1ccc([C@@H]2CN3CCC[C@@H]3c3ccccc32)cc1 (relative stereo) [racemic CH2 CH2 F]
Ki [1, 7]: 13 nM

C=Cc1ccc([C@@H]2CN3CCC[C@@H]3c3ccccc32)cc1 (relative stereo) [racemic CH=CH2]
Ki [1]: 3.7 nM

FCCSc1ccc([C@@H]2CN3CCC[C@@H]3c3ccccc32)cc1 (relative stereo) [racemic SCH2 CH2 F]
Ki [1, 7]: 5.7 nM

FCCSc1ccc([C@@H]2CN3CCC[C@@H]3c3ccccc32)cc1 (single isomer, unassigned) [95% ee (+) SCH2 CH2 F]
Ki [1, 7]: 2.6 nM

FCCSc1ccc([C@@H]2CN3CCC[C@@H]3c3ccccc32)cc1 (single isomer, unassigned) [95% ee (-) SCH2 CH2 F]
Ki [1, 7]: 6.4 nM

[123I]c1ccc([C@@H]2CN3CCC[C@@H]3c3ccccc32)cc1 [95% ee(6S, 10bR)-I-McN, [^123 I](+)-Trans-1,2,3,5,6,10b-hexaydro-6-[4-iodophenyl]-pyrrolo[2,1-a]isoquinoline]
tissue uptake at 1 h ([2]; cerebellum, 5 mg/kg, dopamine blocker GBR 12909 5 mg/kg i.v. 15 min prior, read-out: Cerebellum uptake): 0.55 %ID/g
tissue uptake at 1 h ([2]; cerebellum, no blocker, read-out: Cerebellum uptake): 0.46 %ID/g
tissue uptake at 1 h ([2]; cerebellum, serotonin blocker paroxetine 5 mg/kg i.v. 15 min prior, read-out: Cerebellum uptake): 0.43 %ID/g
tissue uptake at 1 h ([2]; cortex, 5 mg/kg, dopamine blocker GBR 12909 5 mg/kg i.v. 15 min prior, read-out: Cortex uptake): 2.1 %ID/g
tissue uptake at 1 h ([2]; cortex, no blocker, read-out: Cortex uptake): 1.88 %ID/g
tissue uptake at 1 h ([2]; cortex, serotonin blocker paroxetine 5 mg/kg i.v. 15 min prior, read-out: Cortex uptake): 1.8 %ID/g
tissue uptake at 1 h ([2]; hypothalamus, 5 mg/kg, dopamine blocker GBR 12909 5 mg/kg i.v. 15 min prior, read-out: Hypothalamus uptake): 3.62 %ID/g
tissue uptake at 1 h ([2]; hypothalamus, no blocker, read-out: Hypothalamus uptake): 3.75 %ID/g
tissue uptake at 1 h ([2]; hypothalamus, serotonin blocker paroxetine 5 mg/kg i.v. 15 min prior, read-out: Hypothalamus uptake): 2 %ID/g
tissue uptake at 1 h ([2]; prefrontal cortex, 5 mg/kg, dopamine blocker GBR 12909 5 mg/kg i.v. 15 min prior, read-out: Prefrontal Cortex uptake): 2.8 %ID/g
tissue uptake at 1 h ([2]; prefrontal cortex, no blocker, read-out: Prefrontal Cortex uptake): 2.3 %ID/g
tissue uptake at 1 h ([2]; prefrontal cortex, serotonin blocker paroxetine 5 mg/kg i.v. 15 min prior, read-out: Prefrontal Cortex uptake): 1.98 %ID/g
tissue uptake at 1 h ([2]; striatum, 5 mg/kg, dopamine blocker GBR 12909 5 mg/kg i.v. 15 min prior, read-out: Striatum uptake): 1.36 %ID/g
tissue uptake at 1 h ([2]; striatum, no blocker, read-out: Striatum uptake): 2.21 %ID/g
tissue uptake at 1 h ([2]; striatum, serotonin blocker paroxetine 5 mg/kg i.v. 15 min prior, read-out: Striatum uptake): 1.39 %ID/g
Cortex/Cereb ratio [3, 8]: 3.82
Hypthal/Cereb ratio [3, 8]: 6.6
PrefCx/Cereb ratio [3, 8]: 5.1
Striatum/Cereb ratio [3, 8]: 2.47
Cortex/Cereb ratio ([3]; no blocker): 4.08
Hypthal/Cereb ratio ([3]; no blocker): 8.15
PrefCx/Cereb ratio ([3]; no blocker): 5.0
Striatum/Cereb ratio ([3]; no blocker): 4.8
Cortex/Cereb ratio [3, 9]: 4.18
Hypthal/Cereb ratio [3, 9]: 4.65
PrefCx/Cereb ratio [3, 9]: 4.6
Striatum/Cereb ratio [3, 9]: 3.2

Ic1ccc([C@@H]2CN3CCC[C@@H]3c3ccccc32)cc1 [(+)-Trans-1,2,3,5,6,10b-hexahydro-6-[4-iodophenyl]-pyrrolo[2,1-a]isoquinoline]
tissue uptake at 0.5 h [4, 10]: 0.24 %ID/g
tissue uptake at 1 h [4, 10]: 0.3 %ID/g
tissue uptake at 2 h [4, 10]: 0.21 %ID/g
tissue uptake at 0.5 h [4, 11]: 0.85 %ID/g
tissue uptake at 1 h [4, 11]: 0.7 %ID/g
tissue uptake at 2 h [4, 11]: 0.43 %ID/g
tissue uptake at 0.5 h [4, 12]: 0.55 %ID/g
tissue uptake at 1 h [4, 12]: 0.51 %ID/g
tissue uptake at 2 h [4, 12]: 0.47 %ID/g
tissue uptake at 0.5 h [4, 13]: 0.84 %ID/g
tissue uptake at 1 h [4, 13]: 0.66 %ID/g
tissue uptake at 2 h [4, 13]: 0.79 %ID/g
tissue uptake at 0.5 h [4, 14]: 1.62 %ID/g
tissue uptake at 1 h [4, 14]: 1.26 %ID/g
tissue uptake at 2 h [4, 14]: 1.18 %ID/g
tissue uptake at 0.5 h [4, 15]: 1.53 %ID/g
tissue uptake at 1 h [4, 15]: 1.28 %ID/g
tissue uptake at 2 h [4, 15]: 0.92 %ID/g
tissue uptake at 0.5 h [4, 16]: 0.27 %ID/g
tissue uptake at 1 h [4, 16]: 0.26 %ID/g
tissue uptake at 2 h [4, 16]: 0.27 %ID/g
tissue uptake at 0.5 h [4, 17]: 1 %ID/g
tissue uptake at 1 h [4, 17]: 0.74 %ID/g
tissue uptake at 2 h [4, 17]: 0.54 %ID/g
tissue uptake at 0.5 h [4, 18]: 1.07 %ID/g
tissue uptake at 1 h [4, 18]: 1.5 %ID/g
tissue uptake at 2 h [4, 18]: 1.04 %ID/g

[123I]c1ccc([C@@H]2CN3CCC[C@@H]3c3ccccc32)cc1 [(+)-[^123 I]6, (+)-(6S, 10bR)-1,2,3,5,6,10b-hexahydro-6-(4'-[^123 I]iodophenyl)pyrrolo[2,1-a]-isoquinoline]
tissue uptake at 5 min [5, 19]: 1.23 %ID/g
tissue uptake at 0.5 h [5, 19]: 0.78 %ID/g
tissue uptake at 1 h [5, 19]: 0.58 %ID/g
tissue uptake at 2 h [5, 19]: 0.39 %ID/g
tissue uptake at 5 min [5, 20]: 2.06 %ID/g
tissue uptake at 0.5 h [5, 20]: 1.6 %ID/g
tissue uptake at 1 h [5, 20]: 0.89 %ID/g
tissue uptake at 2 h [5, 20]: 0.74 %ID/g
tissue uptake at 5 min [5, 21]: 3.69 %ID/g
tissue uptake at 0.5 h [5, 21]: 3.59 %ID/g
tissue uptake at 1 h [5, 21]: 3.73 %ID/g
tissue uptake at 2 h [5, 21]: 2.85 %ID/g
tissue uptake at 5 min [5, 22]: 5 %ID/g
tissue uptake at 0.5 h [5, 22]: 3.72 %ID/g
tissue uptake at 1 h [5, 22]: 3.13 %ID/g
tissue uptake at 2 h [5, 22]: 2.25 %ID/g
tissue uptake at 5 min [5, 23]: 3.43 %ID/g
tissue uptake at 0.5 h [5, 23]: 2.46 %ID/g
tissue uptake at 1 h [5, 23]: 2.28 %ID/g
tissue uptake at 2 h [5, 23]: 2.06 %ID/g
accumulation in brain regions [6]: greatest accumulation in brain regions rich in serotoninergic neurons
Cortex/Cereb ratio ([6]; 5 min): 1.7
Hypothal/Cereb ratio ([6]; 5 min): 3.0
PrefCx/Cereb ratio ([6]; 5 min): 4.1
Striatum/Cereb ratio ([6]; 5 min): 2.9
Cortex/Cereb ratio ([6]; 30 min): 2.1
Hypothal/Cereb ratio ([6]; 30 min): 4.6
PrefCx/Cereb ratio ([6]; 30 min): 4.8
Striatum/Cereb ratio ([6]; 30 min): 3.2
Cortex/Cereb ratio ([6]; 60 min): 1.6
Hypothal/Cereb ratio ([6]; 60 min): 6.5
PrefCx/Cereb ratio ([6]; 60 min): 5.4
Striatum/Cereb ratio ([6]; 60 min): 4.0
Cortex/Cereb ratio ([6]; 120 min): 1.9
Hypothal/Cereb ratio ([6]; 120 min): 7.3
PrefCx/Cereb ratio ([6]; 120 min): 5.8
Striatum/Cereb ratio ([6]; 120 min): 5.3
